Source: US20250303006A1, “BIOCOMPATIBLE ANTISEPTIC COMPOSITION CONTAINING 9-HYDROXYCALABAXANTHONE AND/OR RELATED XANTHONES” (UNIVERSITAT DE LES ILLES BALEARS, priority 2022, published 2025)

Assays:
[1] = system: human gingival fibroblast cells; experiment: LDH cytotoxicity in immortalized human gingival fibroblasts; format: cell-based
Method: Cells were seeded in 48-well plates at a density of 2×10^4 cells/well. When the cells reached confluence, they were treated with different concentrations of HCX, and cytotoxicity was determined.
48 hours after seeding the iHGF cells in 48-well plates, cell inflammation was induced by means of adding 1 μg/ml of P. gingivalis lipopolysaccharide (LPS) (InvivoGen, San Diego, CA, USA) and the cells were treated with different concentrations of HCX (0.00002, 0.0002, 0.002%) in a fibroblast medium with 50 μg/ml of ascorbic acid (Sigma-Aldrich, St. Louis, MO, USA) for 48 hours. Images of the cells were taken with a bright field inverted microscope (Nikon Eclipse TS100) before treatment and 24 hours and 48 hours after treatment.
To estimate the cytotoxicity of the different concentrations of HCX, the presence of lactate dehydrogenase (LDH) in the culture media 48 h after pro-inflammatory stimulation with LPS and treatment with HCX was used as the cell death index. Following the manufacturer's instructions (Cytotoxicity Detection kit, Roche Diagnostics, Mannheim, Germany), LDH activity was determined spectrophotometrically after a 30-minute incubation at room temperature (RT) of 50 μl of culture media and 50 μl of the reaction mixture, measuring nicotinamide adenine dinucleotide (NADH) oxidation at 490 nm in the presence of pyruvate. Results were presented in relation to LDH activity of the media of the cells seeded without treatment (negative control, 0% cell death) and in relation to cells treated with 1% Triton X-100 (positive control, 100% death) using the following equation: Cytotoxicity (%)=[(expected value−negative control)/(positive control−negative control)]×100.
Different hydrogel formulations with and without 0.05% of HCX (HA, GelMa, Alginate and HPMC) and commercial gel containing 0.2% chlorhexidine and unmodified HA (Periokin Hyaluronic 1%, Laboratorios Kin, Commercial HA 0.2% CHX) were used for studies with gingival fibroblasts and S. epidermidis. Cells and bacteria without hydrogels served as negative control (C−). Gels at a concentration of 5% (v/v) were used for cell and bacterial studies.
Immortalized human gingival fibroblasts were cultured like in experiment 1 of section 1.2. The cells were treated with different hydrogel formulations with and without 0.05% of HCX (HA, GelMa, Alginate and HPMC) and commercial gel containing 0.2% chlorhexidine and unmodified HA (Periokin Hyaluronic 1%, Laboratorios Kin, commercial HA 0.2% CHX) in a fibroblast medium for 24 hours (n=4). Cell cytotoxicity was measured, like in experiment 1 of section 1.4.
16.1. […]
Immortalized human gingival fibroblasts were cultured like in experiment 1 of section 1.2. […] Cell cytotoxicity was measured, like in experiment 1 of section 1.4.

bacterial plaque biofilm = experiment: In vitro bacterial plaque biofilm formation from pooled human saliva; format: cell-based; settings: 0.05% HCX solution, slides immersed 2 min on days 2 and 3; equal to 0.2% chlorhexidine
Method: This is an in vitro study using pooled human saliva as a test substrate to compare the ability of 9-hydroxycalabaxanthone (HCX) versus chlorhexidine (CHX) and control to prevent or reduce plaque biofilm buildup.
Human saliva from different donors was collected and pooled. 15 ml of the pooled saliva supplemented with 0.1% sucrose was pipetted into sterile 40 ml containers and then a glass microscope slide was submerged below 2 cm of saliva in each container and incubated at 37° C. for bacterial biofilm formation. Twice a day the slide was immersed in TSB culture medium. On days 2 and 3, the biofilm was treated with different groups: (1) a solution containing 0.05% 9-hydroxycalabaxanthone (HCX) (n=6), (2) a solution containing 0.2% chlorhexidine (CHX) (n=6), and a solution containing water (C−) (n=6), by immersing the slides for 2 min in the test of the assigned product. […] The removed biofilms were subjected to sonication using three 15 s pulses with a power of 7 W. The homogenized bacterial suspension was used to determine the bacterial viability both by quantification of colony-forming units (CFU) per mL and by LIVE/DEAD assay.
For the Bacterial viability assay, an aliquot (0.1 mL) of the homogenized bacterial suspension was serially diluted and plated on TSB agar. The plates were incubated in 5% CO2 at 37° C. for 48 h, and then the number of CFU/mL was determined. […]

In the case of `COc1c(O)cc2oc3cc4c(c(O)c3c(=O)c2c1CC=C(C)C)C=CC(C)(C)O4` [HCX, 9-hydroxycalabaxanthone], the “cytotoxicity evaluated by activity of lactate dehydrogenase (LDH) released into the medium” value ([1]; HCX 0.00002, 0.0002, 0.002%, 48 h, LPS-stimulated iHGF) is reported as “not observed”, the “concentration that can be applied to cells and tissues” value ([1]; formulated in solution) is reported as “up to 0.002%” and the “plaque biofilm bacteria formation (live/dead ratio, CFU/mL)” value (bacterial plaque biofilm) is reported as “reduced plaque biofilm bacteria formation”.
